Measurements: US10792289B2 (Horizon Orphan LLC, priority 2009, dated 2020)

Key:
[1] = tested on: non-fermenting gram negative bacilli (NFGNB), excluding P. aeruginosa; assay: Phase 2 study: non-fermenting gram negative bacilli density in sputum; format: in vivo
Procedure: The following dosage regimens (as nebulizer loaded doses) were evaluated: 120 mg QD (daily); 240 mg QD (daily); and 240 mg BID (twice daily). Based on aerosol characterization studies of the 100 mg/ml formulation, these loaded doses of 120 and 240 mg correspond estimated respirable delivered doses (RDDs) using a PART eFlow nebulizer of about 65 and 130 mg, respectively.
Patients were assessed on Day 1, 7, 14, and 28, and then up to 28 days after completion of study drug, namely, Days 42 and 56. The end of the study was defined as the last visit of the last patient. Study populations included: (1) safety/modified intent to treat (MITT) population which included all patients enrolled in the study that receive at least one dose of study drug; (2) efficacy evaluable (EE) population which included all patients enrolled in the study without major protocol violations that receive at least 80% of study drug doses during the 28 days of study drug therapy; and (3) pharmacokinetic (PK) population which included all patients that receive at least one dose of study drug and have at least one PK blood sample collected.
Changes in P. aeruginosa density (log lo CFU/g sputum) for sputum samples taken from the EE and MITT populations are summarized in Tables 10 and 11, respectively (SD=standard deviation). […] Tables 18 and 19 summarize changes in non-fermenting gram negative bacilli density (NFGNB), excluding P. aeruginosa, with only patients with positive NFGNB counts at baseline, for EE and MITT populations, respectively. Tables 20 and 21 summarize changes for presumptive S. aureus density (log10 CFU/g sputum) for only patients with positive S. aureus counts at baseline, for EE and MITT populations, respectively.

[2] = tested on: stable CF patients; assay: Phase 1b study: pulmonary function tests (FEV1); format: in vivo, human
Procedure: All patients had had P. aeruginosa cultured from sputum within the previous 24 months and at the screening visit. Study drug was administered twice daily for up to 14 days at three doses by aerosol using a PART eFlow device. Respirable delivered doses (RDD) were approximately 40 mg, 80 mg, and 120 mg per treatment, corresponding to loaded doses of 78 mg, 175 mg, and 260 mg, respectively. Thus, the estimated total daily RDDs were 80 mg, 160 mg, and 240 mg. Study drugs were administered at 30 mg/ml (for 40 mg dose) or 50 mg/ml (for 80 mg and 120 mg doses).
In Table 3, relative change from baseline (CBG) was calculated as ‘Result’ FEV1 minus ‘Baseline’ FEV1 divided by ‘Baseline’ FEV1.

[3] = EE population, Combined 240 mg QD and BID
[4] = EE population, Combined Levofloxacin
[5] = MITT population, Combined 240 mg QD and BID
[6] = MITT population, Combined Levofloxacin
[7] = 80 mg RDD BID, Day 1 predose baseline
[8] = 120 mg RDD BID, Day 1 predose baseline

SMILES: C[C@H]1COc2c(N3CCN(C)CC3)c(F)cc3c(=O)c(C(=O)O)cn1c23 [Levofloxacin, levofloxacin]
- NFGNB density, Change from Baseline to Day 7, Mean ([1]; EE population, 120 mg QD): −1.15 log10 CFU/g sputum
- NFGNB density, Day 1, Mean ([1]; EE population, 120 mg QD): 5.69 log10 CFU/g sputum
- NFGNB density, Day 7, Mean ([1]; EE population, 120 mg QD): 4.54 log10 CFU/g sputum
- NFGNB density, Day 14, Mean ([1]; EE population, 120 mg QD): 3.15 log10 CFU/g sputum
- NFGNB density, Day 28, Mean ([1]; EE population, 120 mg QD): 5.10 log10 CFU/g sputum
- NFGNB density, Change from Baseline to Day 28, Mean ([1]; EE population, 120 mg QD, Day 14): −2.54 log10 CFU/g sputum
- NFGNB density, Change from Baseline to Day 28, Mean ([1]; EE population, 120 mg QD, Day 28): −1.44 log10 CFU/g sputum
- NFGNB density, Change from Baseline to Day 7, Mean ([1]; EE population, 240 mg BID): −0.51 log10 CFU/g sputum
- NFGNB density, Day 1, Mean ([1]; EE population, 240 mg BID): 5.52 log10 CFU/g sputum
- NFGNB density, Day 7, Mean ([1]; EE population, 240 mg BID): 5.01 log10 CFU/g sputum
- NFGNB density, Day 14, Mean ([1]; EE population, 240 mg BID): 6.02 log10 CFU/g sputum
- NFGNB density, Day 28, Mean ([1]; EE population, 240 mg BID): 5.01 log10 CFU/g sputum
- NFGNB density, Change from Baseline to Day 28, Mean ([1]; EE population, 240 mg BID, Day 14): 0.50 log10 CFU/g sputum
- NFGNB density, Change from Baseline to Day 28, Mean ([1]; EE population, 240 mg BID, Day 28): −0.51 log10 CFU/g sputum
- NFGNB density, Change from Baseline to Day 7, Mean ([1]; EE population, 240 mg QD): −2.47 log10 CFU/g sputum
- NFGNB density, Day 1, Mean ([1]; EE population, 240 mg QD): 4.65 log10 CFU/g sputum
- NFGNB density, Day 7, Mean ([1]; EE population, 240 mg QD): 2.18 log10 CFU/g sputum
- NFGNB density, Day 14, Mean ([1]; EE population, 240 mg QD): 2.04 log10 CFU/g sputum
- NFGNB density, Day 28, Mean ([1]; EE population, 240 mg QD): 1.36 log10 CFU/g sputum
- NFGNB density, Change from Baseline to Day 28, Mean ([1]; EE population, 240 mg QD, Day 14): −2.61 log10 CFU/g sputum
- NFGNB density, Change from Baseline to Day 28, Mean ([1]; EE population, 240 mg QD, Day 28): −3.29 log10 CFU/g sputum
- NFGNB density, Change from Baseline to Day 7, Mean [1, 3]: −1.60 log10 CFU/g sputum
- NFGNB density, Day 1, Mean [1, 3]: 5.03 log10 CFU/g sputum
- NFGNB density, Day 7, Mean [1, 3]: 3.44 log10 CFU/g sputum
- NFGNB density, Day 14, Mean [1, 3]: 3.80 log10 CFU/g sputum
- NFGNB density, Day 28, Mean [1, 3]: 2.98 log10 CFU/g sputum
- NFGNB density, Change from Baseline to Day 28, Mean ([1]; EE population, Combined 240 mg QD and BID, Day 14): −1.23 log10 CFU/g sputum
- NFGNB density, Change from Baseline to Day 28, Mean ([1]; EE population, Combined 240 mg QD and BID, Day 28): −2.05 log10 CFU/g sputum
- NFGNB density, Change from Baseline to Day 7, Mean [1, 4]: −1.44 log10 CFU/g sputum
- NFGNB density, Day 1, Mean [1, 4]: 5.27 log10 CFU/g sputum
- NFGNB density, Day 7, Mean [1, 4]: 3.83 log10 CFU/g sputum
- NFGNB density, Day 14, Mean [1, 4]: 3.57 log10 CFU/g sputum
- NFGNB density, Day 28, Mean [1, 4]: 3.63 log10 CFU/g sputum
- NFGNB density, Change from Baseline to Day 28, Mean ([1]; EE population, Combined Levofloxacin, Day 14): −1.70 log10 CFU/g sputum
- NFGNB density, Change from Baseline to Day 28, Mean ([1]; EE population, Combined Levofloxacin, Day 28): −1.87 log10 CFU/g sputum
- NFGNB density, Change from Baseline to Day 7, Mean ([1]; MITT population, 120 mg QD): −1.15 log10 CFU/g sputum
- NFGNB density, Day 1, Mean ([1]; MITT population, 120 mg QD): 5.69 log10 CFU/g sputum
- NFGNB density, Day 7, Mean ([1]; MITT population, 120 mg QD): 4.54 log10 CFU/g sputum
- NFGNB density, Day 14, Mean ([1]; MITT population, 120 mg QD): 3.25 log10 CFU/g sputum
- NFGNB density, Day 28, Mean ([1]; MITT population, 120 mg QD): 5.10 log10 CFU/g sputum
- NFGNB density, Change from Baseline to Day 28, Mean ([1]; MITT population, 120 mg QD, Day 14): −2.54 log10 CFU/g sputum
- NFGNB density, Change from Baseline to Day 28, Mean ([1]; MITT population, 120 mg QD, Day 28): −1.44 log10 CFU/g sputum
- NFGNB density, Change from Baseline to Day 7, Mean ([1]; MITT population, 240 mg BID): −0.42 log10 CFU/g sputum
- NFGNB density, Day 1, Mean ([1]; MITT population, 240 mg BID): 6.05 log10 CFU/g sputum
- NFGNB density, Day 7, Mean ([1]; MITT population, 240 mg BID): 5.63 log10 CFU/g sputum
- NFGNB density, Day 14, Mean ([1]; MITT population, 240 mg BID): 6.50 log10 CFU/g sputum
- NFGNB density, Day 28, Mean ([1]; MITT population, 240 mg BID): 5.63 log10 CFU/g sputum
- NFGNB density, Change from Baseline to Day 28, Mean ([1]; MITT population, 240 mg BID, Day 14): 0.45 log10 CFU/g sputum
- NFGNB density, Change from Baseline to Day 28, Mean ([1]; MITT population, 240 mg BID, Day 28): −0.43 log10 CFU/g sputum
- NFGNB density, Change from Baseline to Day 7, Mean ([1]; MITT population, 240 mg QD): −2.73 log10 CFU/g sputum
- NFGNB density, Day 1, Mean ([1]; MITT population, 240 mg QD): 5.26 log10 CFU/g sputum
- NFGNB density, Day 7, Mean ([1]; MITT population, 240 mg QD): 2.52 log10 CFU/g sputum
- NFGNB density, Day 14, Mean ([1]; MITT population, 240 mg QD): 3.08 log10 CFU/g sputum
- NFGNB density, Day 28, Mean ([1]; MITT population, 240 mg QD): 2.77 log10 CFU/g sputum
- NFGNB density, Change from Baseline to Day 28, Mean ([1]; MITT population, 240 mg QD, Day 14): −2.18 log10 CFU/g sputum
- NFGNB density, Change from Baseline to Day 28, Mean ([1]; MITT population, 240 mg QD, Day 28): −2.49 log10 CFU/g sputum
- NFGNB density, Change from Baseline to Day 7, Mean [1, 5]: −1.77 log10 CFU/g sputum
- NFGNB density, Day 1, Mean [1, 5]: 5.59 log10 CFU/g sputum
- NFGNB density, Day 7, Mean [1, 5]: 3.82 log10 CFU/g sputum
- NFGNB density, Day 14, Mean [1, 5]: 4.50 log10 CFU/g sputum
- NFGNB density, Day 28, Mean [1, 5]: 3.96 log10 CFU/g sputum
- NFGNB density, Change from Baseline to Day 28, Mean ([1]; MITT population, Combined 240 mg QD and BID, Day 14): −1.08 log10 CFU/g sputum
- NFGNB density, Change from Baseline to Day 28, Mean ([1]; MITT population, Combined 240 mg QD and BID, Day 28): 1.63 log10 CFU/g sputum
- NFGNB density, Change from Baseline to Day 7, Mean [1, 6]: −1.59 log10 CFU/g sputum
- NFGNB density, Day 1, Mean [1, 6]: 5.62 log10 CFU/g sputum
- NFGNB density, Day 7, Mean [1, 6]: 4.03 log10 CFU/g sputum
- NFGNB density, Day 14, Mean [1, 6]: 4.11 log10 CFU/g sputum
- NFGNB density, Day 28, Mean [1, 6]: 4.24 log10 CFU/g sputum
- NFGNB density, Change from Baseline to Day 28, Mean ([1]; MITT population, Combined Levofloxacin, Day 14): −1.51 log10 CFU/g sputum
- NFGNB density, Change from Baseline to Day 28, Mean ([1]; MITT population, Combined Levofloxacin, Day 28): −1.58 log10 CFU/g sputum
- FEV1, median ([2]; 40 mg RDD BID, Day 1 predose baseline): 2.30 L
- FEV1, median ([2]; 40 mg RDD BID, Day 2 predose): 2.32 L
- FEV1, median ([2]; 40 mg RDD BID, Day 7): 2.30 L
- FEV1, median ([2]; 40 mg RDD BID, Day 14 predose): 2.30 L
- FEV1, median ([2]; 40 mg RDD BID, Day 21/ET): 2.07 L
- FEV1, mean [2, 7]: 2.06 L
- FEV1, median [2, 7]: 1.95 L
- FEV1, median ([2]; 80 mg RDD BID, Day 2 predose): 2.00 L
- FEV1, median ([2]; 80 mg RDD BID, Day 7): 2.08 L
- FEV1, median ([2]; 80 mg RDD BID, Day 14 predose): 2.10 L
- FEV1, mean ([2]; 80 mg RDD BID, Day 21/ET): 2.03 L
- FEV1, median ([2]; 80 mg RDD BID, Day 21/ET): 2.04 L
- FEV1, mean [2, 8]: 2.56 L
- FEV1, median [2, 8]: 2.23 L
- FEV1, mean ([2]; 120 mg RDD BID, Day 2 predose): 2.73 L
- FEV1, median ([2]; 120 mg RDD BID, Day 2 predose): 2.38 L
- FEV1, mean ([2]; 120 mg RDD BID, Day 7): 3.07 L
- FEV1, median ([2]; 120 mg RDD BID, Day 7): 2.40 L
- FEV1, mean ([2]; 120 mg RDD BID, Day 14 predose): 3.12 L
- FEV1, median ([2]; 120 mg RDD BID, Day 14 predose): 2.57 L
- FEV1, mean ([2]; 120 mg RDD BID, Day 21/ET): 2.75 L
- FEV1, median ([2]; 120 mg RDD BID, Day 21/ET): 2.48 L
